Experimental findings from patent US20220313651A1, “INHIBITORS OF ZIKA VIRUS INFECTION” (priority 2019, published 2022) are described below.

The structures appear in SMILES notation.

Data set [1] concerns ZIKV mosquito strain MEX 2-81 (2016/Mexico). Nature of the data set: Plaque reduction inhibition assay in Vero E6 cells, ZIKV MEX 2-81. The settings on record: Vero E6 cells; Table 7, gossypol derivatives; read-out: ZIKV strains IC50, MEX 2-81. Type of data set: cell-based, Zika virus (ZIKV). From the text: (§1) Vero E6 and LLC-MK2 cells were maintained in Dulbecco's Modified Eagle Medium (DMEM) supplemented with 8% fetal bovine serum (FBS) and penicillin and streptomycin (P/S). C6/36 cells were maintained in Eagle's Minimal Essential Medium (EMEM) supplemented with 5% FBS and P/S. ZIKV strains, including human strains PAN2016 (2016/Panama), R116265 (2016/Mexico), PAN2015 (2015/Panama), FLR (2015/Colombia), R103451 (2015/Honduras), PRVABC59 (2015/Puerto Rico), PLCal_ZV (2013/Thailand), and IbH 30656 (1968/Nigeria), mosquito strain MEX 2-81 (2016/Mexico), and rhesus macaque strain MR 766 (1947/Uganda), were used in the studies. These ZIKV strains were cultured in Vero E6 cells, and viral titers were detected by a standard plaque-forming assay. DENV human strains, including type 1: DENV-1-V1792 (2007/Vietnam), type 2: DENV-2-V594 (2006/Puerto Rico), type 3: DENV-3-V1043 (2006/Puerto Rico), and type 4: DENV-4-PR 06-65-740 (2006/Puerto Rico), were cultured in C6/36 cells, and the viral titers were determined by plaque-forming assay as described above.
(§2) A plaque reduction inhibition assay was carried out to measure the inhibitory activity of Z-medicaments against infections of ZIKV and DENV. […] The compound-virus mixtures were then transferred to Vero E6 cells (10^5/well) and incubated at 37° C. for 1 h. […] The cells were washed thoroughly with PBS, and overlaid with DMEM containing 1% carboxymethyl cellulose and 2% FBS, followed by in vitro culture at 37° C. for 4-5 days and then staining with 0.5% crystal violet.
(§3) After removal of the unbound compounds by centrifugation after addition of 3% PEG-6000, ZIKV was incubated with Vero E6 cells at 37° C. for 1 h. The cells were then washed with PBS, overlaid with DMEM containing 1% carboxymethyl cellulose and 2% FBS, and cultured at 37° C. for 4-5 days, followed by staining with 0.5% crystal violet.

Data set [2] relates to ZIKV human strain PAN2015 (2015/Panama). The data set is described as follows: microbe, parasite or virus in culture. The settings on record: Vero E6 cells; Table 7, gossypol derivatives; read-out: ZIKV strains IC50, PAN2015. Type of data set: cell-based, Zika virus (ZIKV).
Description: as §1, §2, §3

Data set [3] concerns ZIKV rhesus macaque strain MR 766 (1947/Uganda). Nature of the data set: Plaque reduction inhibition assay in Vero E6 cells, ZIKV MR 766. The data set is classed as cell-based, Zika virus (ZIKV). The conditions noted are these: Vero E6 cells; Table 7, gossypol derivatives; read-out: ZIKV strains IC50, MR766. The procedure:
(§4) A plaque reduction inhibition assay was carried out to measure the inhibitory activity of Z-medicaments against infections of ZIKV and DENV. […] The compound-virus mixtures were then transferred to Vero E6 cells (10^5/well) and incubated at 37° C. for 1 h.

For data set [4], the system named is ZIKV human strain R116265 (2016/Mexico). The data set is described as follows: Plaque reduction inhibition assay in Vero E6 cells, ZIKV R116265. Type of data set: cell-based, Zika virus (ZIKV). The settings on record: Table 7, gossypol derivatives, read-out: ZIKV strains IC50, R116265.
Description: as §1, §2, §3

For data set [5], the system named is ZIKV human strain R103451 (2015/Honduras). The data set is described as follows: Plaque reduction inhibition assay in Vero E6 cells, ZIKV R103451. The data set is classed as cell-based, Zika virus (ZIKV). The conditions noted are these: Vero E6 cells; Table 7, gossypol derivatives; read-out: ZIKV strains IC50, R103451. As for the experimental part:
as §4

For data set [6], the system named is ZIKV human strain PRVABC59 (2015/Puerto Rico). Nature of the data set: Plaque reduction inhibition assay in Vero E6 cells, ZIKV PRVABC59. Type of data set: cell-based, Zika virus (ZIKV). The conditions noted are these: Vero E6 cells; Table 7, gossypol derivatives; read-out: ZIKV strains IC50, PRVABC59. As for the experimental part: as §4
Data set [7] deals with ZIKV human strain PLCal_ZV (2013/Thailand). The data set is described as follows: Plaque reduction inhibition assay in Vero E6 cells, ZIKV PLCal_ZV. Type of data set: cell-based, Zika virus (ZIKV). The settings on record: Vero E6 cells; Table 7, gossypol derivatives; read-out: ZIKV strains IC50, PLCal_ZV. The procedure: as §4
Data set [8] deals with ZIKV human strain FLR (2015/Colombia). Nature of the data set: Plaque reduction inhibition assay in Vero E6 cells, ZIKV FLR. Type of data set: cell-based, Zika virus (ZIKV). The settings on record: Vero E6 cells; Table 7, gossypol derivatives; read-out: ZIKV strains IC50, FLR. The procedure:
as §4

Data set [9] has as its system ZIKV human strain PAN2016 (2016/Panama). Nature of the data set: Plaque reduction inhibition assay in Vero E6 cells, ZIKV PAN2016. The settings on record: Vero E6 cells; Table 7, gossypol derivatives; read-out: ZIKV strains IC50, PAN2016. Type of data set: cell-based, Zika virus (ZIKV). The procedure:
as §4

Data set [10] deals with Vero E6 cells. Nature of the data set: in vitro. The settings on record: Vero E6 cells. The procedure:
The cytotoxicity of the Z-medicaments in Vero E6 (ZIKV target cells) was evaluated using the Cell Counting Kit-8 (CCK8).
Briefly, compounds at 2-fold serial dilutions were added to cells (2.0×10^4/well) pre-seeded in 96-well plates. The cells were cultured at 37° C. for 3 days, and incubated with CCK8 solution, followed by measurement of absorbance at 450 nm (A450 value) using microplate reader.

In data set [11] the test system is ZIKV human strain IbH 30656 (1968/Nigeria). The data set is described as follows: Plaque reduction inhibition assay in Vero E6 cells, ZIKV IbH 30656. Type of data set: cell-based, Zika virus (ZIKV). The conditions noted are these: Table 7, gossypol derivatives, read-out: ZIKV strains IC50, IbH 30656. As for the experimental part: as §4
Data set [12] has as its target T1, ZIKV NS2B-NS3 protease (Zika virus, UniProt Q32ZE1).
T1 construct: 49-97) and NS2 protein (residues 1-185) through a covalent; made in house; host or cells: E. coli
Nature of the data set: ELISA binding to ZIKV NS2B-NS3 protease. The procedure:
(§5) Binding of compounds (NPs) to ZIKV full-length E (FIG. 3A), EDIII (FIG. 3B), and NS2B-NS3 (FIG. 3C) proteins, was detected by ELISA. The percent binding was reported in the presence or absence of serially diluted NPs using the formula (1-[E/EDIII-NP]/[E/EDIII])×100 (for E/EDIII binding) or (1-[NS2B-NS3-NP]/[NS2B-NS3])×100 (for NSEB-NS3 binding). […] The concentrations of ZIKV EDIII and mAbs were 1.5 and 0.5 μg/ml, respectively. […] The concentrations of substrate (Bz-Nle-Lys-Lys-Arg-AMC) and ZIKV NS2B-NS3 protein were 4 μM and 1 μg/ml, respectively. The percent inhibition of protease activity was calculated in the presence or absence of serially diluted compounds using the formula (1-[NS2B-NS3-substrate-NP]/[NS2B-NS3-substrate])×100. The IC50 values were calculated based on the percent inhibition. The data are expressed as mean±s.e.m. (n=4).
(§6) The data are expressed as mean±s.e.m. (n=4), and DMSO was used as negative control. Surface plasmon resonance (SPR) analysis of the binding between ST087010 and ZIKV EDIII (FIG. 6D) or NS2B-NS3 (FIG. 6E) protein was performed. Binding affinity was shown as KD (equilibrium dissociation constant).
(§7) The binding between the Z-medicament and ZIKV full-length E protein, EDIII protein (E residues 298-409 fused with a C-terminal human Fc), or NS2B-NS3 protease was carried out by ELISA. Briefly, ELISA plates were pre-coated with the proteins described above at 4° C. overnight, and blocked with 2% fat-free milk at 37° C. for 2 h. Serial dilutions of the Z-medicament or DMSO (control) were then added to the plates and incubated at 37° C. for 2 h. The plates were washed with PBS containing Tween-20 (PBST), and incubated at 37° C. for 1 h with ZIKV EDIII-specific human mAb ZKA64-LALA (0.5 μg/ml) (for binding to ZIKV full-length E and EDIII proteins), or mouse sera specific to ZIKV NS2B-NS3 (for binding to NS2B-NS3 protease). The plates were washed with PBST, and incubated with horseradish peroxidase (HRP)-conjugated anti-human IgG-Fab (1:3000) or anti-mouse IgG (1:3000) antibody at 37° C. for 1 h. The 3,3′,5,5′-tetramethylbenzidine (TMB) substrate was added to the plates, and the reaction was stopped by 1 N H2SO4. Absorbance at 450 nm (A450 value) was measured by ELISA microplate reader.
(§8) Briefly, ELISA plates were coated with each protein (1 μg/ml) at 4° C. overnight, and were then incubated with blocking buffer containing 2% fat-free milk in PBST at 37° C. for 2 h. The above compounds, or DMSO control, at serial dilutions were added to the plates, and incubated at 37° C. for 2 h. After three washes using PBST, the plates were incubated at 37° C. for 2 h with ZIKV EDIII-specific human mAb ZKA64-LALA (0.5 μg/ml) (for binding to ZIKV full-length E or EDIII protein), or ZIKV NS2B-NS3-specific mouse sera (for binding to NS2B-NS3 protein). After further washes, the plates were incubated with HRP-conjugated anti-human IgG-Fab (1:3,000) or anti-mouse IgG (1:3,000) antibody at 37° C. for 1 h.

Data set [13] addresses ZIKV full-length E protein (Zika virus, UniProt Q32ZE1). Nature of the data set: ELISA binding to ZIKV full-length E protein. The procedure: as §5, §6, §7
as §8, with “1 h. The plates were incubated with substrate TMB, and the reaction was stopped by addition of 1 N H2SO4. Absorbance at 450 nm (A450 values) was measured by an ELISA microplate reader. EC50 values were calculated.” for “1 h.”

Data set [14] has as its target T2, ZIKV EDIII protein (E residues 298-409) (Zika virus, UniProt Q32ZE1, D679E/I627V/V603I/V629A).
T2 construct: human Fc (C)
Type of data set: binding. The conditions noted are these: ELISA. As for the experimental part: as §5, §6, §7
Briefly, ELISA plates were coated with each protein (1 μg/ml) at 4° C. overnight, and were then incubated with blocking buffer containing 2% fat-free milk in PBST at 37° C. for 2 h. The above compounds, or DMSO control, at serial dilutions were added to the plates, and incubated at 37° C. for 2 h. […] Absorbance at 450 nm (A450 values) was measured by an ELISA microplate reader. EC50 values were calculated.
For orientation: An ELISA detects its analyte on a solid surface through an enzyme-linked reagent.

A word on the IC50: it is the midpoint of a concentration-inhibition curve. The term CC50 denotes the concentration at which the toxic effect on the cells reaches its halfway point. A lower CC50 goes with harm at low concentration. On to `CCC(O)/N=C/c1c(O)c(O)c(C(C)C)c2cc(C)c(-c3c(C)cc4c(C(C)C)c(O)c(O)c(/C=N/C(O)CC)c4c3O)c(O)c12` (stereo not shown) [ST005138], for which the IC50 in data set [1] was 2.89 ± 0.12 µM; in [2] it was 2.18 ± 1.19 µM; in data set [3], 2.52 ± 0.04 µM; in data set [4], 3.13 ± 0.29 µM; in data set [5], 3.05 ± 0.09 µM; in data set [6] it was 3.89 ± 0.32 µM. Besides, the IC50 in [7] was determined as 3.87 ± 0.54 µM; in [8], 3.44 ± 0.18 µM; in data set [9], 2.29 ± 0.01 µM; in data set [11], 2.4 ± 0.27 µM. This molecule gave a CC50 in data set [10] (Table 7, gossypol derivatives) of 22.82 ± 0.02 µM.

For the molecule `Cc1cc2nc[nH]c2c(N=Cc2c(O)c(O)c(C(C)C)c3cc(C)c(-c4c(C)cc5c(C(C)C)c(O)c(O)c(C=Nc6c(C)c(C)cc7nc[nH]c67)c5c4O)c(O)c23)c1C` [ST092971], the IC50 in data set [1] worked out at 13.5 ± 0.58 µM; in data set [2], 5.01 ± 0.36 µM; in data set [3], 5.2 ± 0.37 µM; in [4] it was 7.97 ± 0.17 µM; in data set [5], 6.64 ± 0.27 µM; in data set [6], 9.1 ± 0.11 µM. Besides, the IC50 came to 6.72 ± 0.2 µM in data set [7], 6.89 ± 0.05 µM in data set [8], 4.98 ± 0.01 µM in [9] and 5.16 ± 0.21 µM in [11]. The molecule further had a CC50 in data set [10] (Table 7, gossypol derivatives) of 72.1 ± 1.91 µM.

For the molecule `CC(C)C[C@H](NC(=O)[C@H](Cc1ccccc1)NC(=O)c1cnccn1)B(O)O` [Bortezomib, bortezomib, reference compound], the “Binding to ZIKV NS2B-NS3 protein (in words)” value in [12] was “bound to no ZIKV proteins tested”. Besides, the midpoint of cytotoxicity in data set [10] (3 days, CCK8, Table 1), the CC50, lay at 17 ± 0.2 µM. In addition, the “Binding to ZIKV full-length E protein (in words)” value in [13] is “bound to no ZIKV proteins tested”. In [14], the “Binding to ZIKV EDIII protein (in words)” value is “bound to no ZIKV proteins tested”.

With `Cc1cc2c(C(C)C)c(O)c(O)c3c2c(c1-c1c(C)cc2c(C(C)C)c(O)c(O)c4c2c1OC4N)OC3N` (stereo not shown) [ST069299], the IC50 in [1] was 3.89 ± 0.24 µM; in [2] it was 2.33 ± 0.1 µM; in [3], 4.88 ± 0.05 µM; in data set [4], 2.57 ± 0.2 µM; in [5] it was 3.85 ± 0.11 µM; in data set [6], 3.33 ± 0.3 µM. Besides, the IC50 is 3.98 ± 0.54 µM in [7], 3.27 ± 0.25 µM in data set [8], 2.34 ± 0.06 µM in data set [9] and 2.54 ± 0.44 µM in data set [11]. Further, the CC50 in data set [10] (Table 7, gossypol derivatives) is 25.9 ± 2.7 µM.
